In patent US20210047291A1, “PESTICIDALLY ACTIVE HETEROCYCLIC DERIVATIVES WITH SULFUR CONTAINING SUBSTITUENTS” (SYNGENTA PARTICIPATIONS AG, priority 2018, published 2021):
Read-outs that look alike come from different tables or passages of the source.

Key:
Type in all cases: in vivo
[1] = tested on: Myzus persicae (Green peach aphid); assay: Example B5: Myzus persicae feeding/contact activity, sunflower leaf discs; settings: foliar; for mortality at 200 ppm: 144 h
Procedure: Sunflower leaf discs were placed onto agar in a 24-well microtiter plate and sprayed with aqueous test solutions prepared from 10,000 ppm DMSO stock solutions. After drying, the leaf discs were infested with an aphid population of mixed ages. The samples were assessed for mortality 6 days after infestation.

[2] = tested on: Myzus persicae (Green peach aphid); assay: Example B6: Myzus persicae systemic activity, pea seedlings; settings: for mortality at 24 ppm: 144 h
Procedure: Roots of pea seedlings infested with an aphid population of mixed ages were placed directly into aqueous test solutions prepared from 10,000 DMSO stock solutions. The samples were assessed for mortality 6 days after placing seedlings into test solutions.

[3] = tested on: Diabrotica Balteata (Corn Root Worm); assay: Example B2: Diabrotica balteata, maize sprouts, L2 larvae; settings: Diabrotica balteata, 96 h, application rate of 200 ppm; L2 larvae; 4 days after infestation; read-out: effect in at least one of the two categories (mortality or growth inhibition)
Procedure: Maize sprouts placed onto an agar layer in 24-well microtiter plates were treated with aqueous test solutions prepared from 10,000 ppm DMSO stock solutions by spraying. After drying, the plates were infested with L2 larvae (6 to 10 per well). The samples were assessed for mortality and growth inhibition in comparison to untreated samples 4 days after infestation.

[4] = tested on: Plutella xylostella (Diamond Back Moth); assay: Example B7: Plutella xylostella, artificial diet, L2 larvae; settings: 120 h, read-out: effect in at least one of the two categories (mortality or growth inhibition); for percent effect (mortality or growth inhibition) at 200 ppm: application rate of 200 ppm, L2 larvae, 5 days after infestation
Procedure: 24-well microtiter plates with artificial diet were treated with aqueous test solutions prepared from 10,000 ppm DMSO stock solutions by pipetting. After drying, the plates were infested with L2 larvae (10 to 15 per well). The samples were assessed for mortality and growth inhibition in comparison to untreated samples 5 days after infestation.

[5] = tested on: Spodoptera littoralis (Egyptian Cotton Leaf Worm); assay: Example B9: Spodoptera littoralis, cotton leaf discs (mortality, anti-feeding, growth inhibition); settings: foliar, 72 h, read-out: control (mortality, anti-feeding effect or growth inhibition)
Procedure: Cotton leaf discs were placed onto agar in 24-well microtiter plates and sprayed with aqueous test solutions prepared from 10,000 ppm DMSO stock solutions. After drying the leaf discs were infested with five L1 larvae. The samples were assessed for mortality, anti-feeding effect, and growth inhibition in comparison to untreated samples 3 days after infestation. Control of Spodoptera littoralis by a test sample is given when at least one of the categories mortality, anti-feedant effect, and growth inhibition is higher than the untreated sample.

[6] = tested on: Euschistus heros (Neotropical Brown Stink Bug); assay: Example B3: Euschistus heros, soybean leaves, N2 nymphs; settings: for percent effect (mortality or growth inhibition) at 200 ppm: 120 h, read-out: effect in at least one of the two categories (mortality or growth inhibition)
Procedure: Soybean leaves on agar in 24-well microtiter plates were sprayed with aqueous test solutions prepared from 10,000 ppm DMSO stock solutions. After drying the leaves were infested with N2 nymphs. The samples were assessed for mortality and growth inhibition in comparison to untreated samples 5 days after infestation.

Melodoigyne incognita = assay: Example B14: Melodoigyne incognita juvenile mobility, in vitro profiling in 96 well plate; settings: read-out: control (juvenile mobility)
Procedure: Test solutions are prepared from 10,000 ppm DMSO stock solutions with a TECAN robot to achieve 20 μL of 1000, 200, 100, 50, 25 and 12.5 ppm. For each concentration three replicates are produced. Per well, 80 μL nematode solution is added containing 100 to 150 freshly harvested second stage juveniles of Melodoigyne incognita. The plates are covered and stored at room temperature in the dark and incubated for 24 h. Mobility of the exposed juveniles in a treated well is measured using an imaging tool and compared to an average of 12 untreated replicates.

[7] = Myzus persicae, application rate of 200 ppm, mixed ages, 6 days after infestation, read-out: mortality
[8] = Myzus persicae, test rate of 24 ppm, mixed ages, 6 days after placing seedlings into test solutions, read-out: mortality
[9] = application rate of 200 ppm, L1 larvae, 3 days after infestation
[10] = Euschistus heros, application rate of 200 ppm, N2 nymphs, 5 days after infestation
[11] = 200 ppm, after 24 h, second stage juveniles

CCS(=O)(=O)c1cc(N(C)C(=O)COC)cnc1-c1nc2cc(C(F)(F)F)ncc2n1C [P12, N-[5-ethylsulfonyl-6-[3-methyl-6-(trifluoromethyl)imidazo[4,5-c]pyridin-2-yl]-3-pyridyl]-2-methoxy-N-methyl-acetamide] was tested, and the mortality at 200 ppm [1, 7] was ≥ 80%, the mortality at 24 ppm [2, 8] was ≥ 80% and the percent effect (mortality or growth inhibition) at 200 ppm [3] was ≥ 80%. The percent effect (mortality or growth inhibition) at 200 ppm [4] was ≥ 80%, the percent control (mortality, anti-feedant effect or growth inhibition) at 200 ppm [5, 9] was ≥ 80% and the percent effect (mortality or growth inhibition) at 200 ppm [6, 10] was ≥ 80%. For the same compound, the pest or weed control at 200 ppm (Melodoigyne incognita; [11]) was ≥ 80%.
With CCS(=O)(=O)c1cc(N(C(C)=O)C2CC2)cnc1-c1nc2cc(C(F)(F)F)ncc2n1C [P10, N-cyclopropyl-N-[5-ethylsulfonyl-6-[3-methyl-6-(trifluoromethyl)imidazo[4,5-c]pyridin-2-yl]-3-pyridyl]acetamide] the mortality at 200 ppm [1, 7] was ≥ 80%, the mortality at 24 ppm [2, 8] was ≥ 80% and the percent effect (mortality or growth inhibition) at 200 ppm [3] was ≥ 80%. The percent effect (mortality or growth inhibition) at 200 ppm [4] was ≥ 80%, the percent control (mortality, anti-feedant effect or growth inhibition) at 200 ppm [5, 9] was ≥ 80% and the percent effect (mortality or growth inhibition) at 200 ppm [6, 10] was ≥ 80%. For the same compound, the pest or weed control at 200 ppm (Melodoigyne incognita; [11]) was ≥ 80%.
For CCS(=O)(=O)c1cc(N(C)C(=O)C(C)(C)C)cnc1-c1nc2cc(C(F)(F)F)ncc2n1C [P26, N-[5-ethylsulfonyl-6-[3-methyl-6-(trifluoromethyl)imidazo[4,5-c]pyridin-2-yl]-3-pyridyl]-N,2,2-trimethyl-propanamide], the mortality at 200 ppm [1, 7] was ≥ 80%, the mortality at 24 ppm [2, 8] was ≥ 80% and the percent effect (mortality or growth inhibition) at 200 ppm [4] was ≥ 80%. For the same compound, the percent effect (mortality or growth inhibition) at 200 ppm [6, 10] was ≥ 80% and the pest or weed control at 200 ppm (Melodoigyne incognita; [11]) was ≥ 80%.
In the case of CCS(=O)(=O)c1cc(N2CCCC2=O)cnc1-c1nc2cc(C(F)(F)F)ncc2n1C [P5, 1-[5-ethylsulfonyl-6-[3-methyl-6-(trifluoromethyl)imidazo[4,5-c]pyridin-2-yl]-3-pyridyl]pyrrolidin-2-one], the mortality at 12.5 ppm ([1]; Myzus persicae) is reported as 0%, the mortality at 200 ppm ([1]; Myzus persicae) is reported as ≥ 80% and the mortality at 1.5 ppm ([2]; Myzus persicae) is reported as 80%. The mortality at 24 ppm ([2]; Myzus persicae) was ≥ 80%, the percent control (mortality or growth inhibition) at 200 ppm [4] was ≥ 80% and the percent control (mortality, anti-feedant effect or growth inhibition) at 200 ppm [5] was ≥ 80%. The mortality at 50 ppm ([6]; Euschistus heros) was 100%, the percent effect (mortality or growth inhibition) at 200 ppm ([6]; Euschistus heros) was ≥ 80% and the pest or weed control at 200 ppm (Melodoigyne incognita; 24 h) was ≥ 80%.
For CCC(=O)N(OC)c1cnc(-c2nc3cc(C(F)(F)F)ncc3n2C)c(S(=O)(=O)CC)c1 [P29, N-[5-ethylsulfonyl-6-[3-methyl-6-(trifluoromethyl)imidazo[4,5-c]pyridin-2-yl]-3-pyridyl]-N-methoxy-propanamide], the mortality at 200 ppm [1, 7] was ≥ 80%, the mortality at 24 ppm [2, 8] was ≥ 80% and the percent effect (mortality or growth inhibition) at 200 ppm [3] was ≥ 80%. The percent effect (mortality or growth inhibition) at 200 ppm [4] was ≥ 80%, the percent control (mortality, anti-feedant effect or growth inhibition) at 200 ppm [5, 9] was ≥ 80% and the percent effect (mortality or growth inhibition) at 200 ppm [6, 10] was ≥ 80%. For the same compound, the pest or weed control at 200 ppm (Melodoigyne incognita; [11]) was ≥ 80%.
In the case of CCS(=O)(=O)c1cc(N(C)C(=O)CS(C)(=O)=O)cnc1-c1nc2cc(C(F)(F)F)ncc2n1C [P17, N-[5-ethylsulfonyl-6-[3-methyl-6-(trifluoromethyl)imidazo[4,5-c]pyridin-2-yl]-3-pyridyl]-N-methyl-2-methylsulfonyl-acetamide], the mortality at 200 ppm [1, 7] is reported as ≥ 80%, the mortality at 24 ppm [2, 8] is reported as ≥ 80% and the percent effect (mortality or growth inhibition) at 200 ppm [3] is reported as ≥ 80%. The percent control (mortality, anti-feedant effect or growth inhibition) at 200 ppm [5, 9] was ≥ 80%, the percent effect (mortality or growth inhibition) at 200 ppm [6, 10] was ≥ 80% and the pest or weed control at 200 ppm (Melodoigyne incognita; [11]) was ≥ 80%.
For CCC(=O)Nc1cnc(-c2nc3cc(C(F)(F)F)ncc3n2C)c(S(=O)(=O)CC)c1 [P25, N-[5-ethylsulfonyl-6-[3-methyl-6-(trifluoromethyl)imidazo[4,5-c]pyridin-2-yl]-3-pyridyl]propanamide], the mortality at 200 ppm [1, 7] was ≥ 80%, the mortality at 24 ppm [2, 8] was ≥ 80% and the percent effect (mortality or growth inhibition) at 200 ppm [3] was ≥ 80%. For the same compound, the percent effect (mortality or growth inhibition) at 200 ppm [4] was ≥ 80%, the percent effect (mortality or growth inhibition) at 200 ppm [6, 10] was ≥ 80% and the pest or weed control at 200 ppm (Melodoigyne incognita; [11]) was ≥ 80%.
With CCS(=O)(=O)c1cc(N2CCOC2=O)cnc1-c1nc2cc(C(F)(F)F)ncc2n1C [P34, 3-[5-ethylsulfonyl-6-[3-methyl-6-(trifluoromethyl)imidazo[4,5-c]pyridin-2-yl]-3-pyridyl]oxazolidin-2-one] the mortality at 200 ppm [1, 7] was ≥ 80%, the mortality at 12.5 ppm ([1]; Concentration 12.5 ppm, Myzus persicae (feeding/contact, Example B5), read-out: Mortality (%)) was 100% and the mortality at 1.5 ppm ([2]; Concentration 1.5 ppm, Myzus persicae (systemic, Example B6), read-out: Mortality (%)) was 100%. For the same compound, the mortality at 24 ppm [2, 8] was ≥ 80%, the percent effect (mortality or growth inhibition) at 200 ppm [4] was ≥ 80% and the percent control (mortality, anti-feedant effect or growth inhibition) at 200 ppm [5, 9] was ≥ 80%. The mortality at 50 ppm ([6]; Concentration 50 ppm, Euschistus heros (Example B3), read-out: Mortality (%)) was 80%, the percent effect (mortality or growth inhibition) at 200 ppm [6, 10] was ≥ 80% and the pest or weed control at 200 ppm (Melodoigyne incognita; [11]) was ≥ 80%.
In the case of CCS(=O)(=O)c1cc(N(OC)C(=O)C2CC2)cnc1-c1nc2cc(C(F)(F)F)ncc2n1C [P24, N-[5-ethylsulfonyl-6-[3-methyl-6-(trifluoromethyl)imidazo[4,5-c]pyridin-2-yl]-3-pyridyl]-N-methoxy-cyclopropanecarboxamide], the percent effect (mortality or growth inhibition) at 200 ppm [3] is reported as ≥ 80%, the percent effect (mortality or growth inhibition) at 200 ppm [4] is reported as ≥ 80% and the percent control (mortality, anti-feedant effect or growth inhibition) at 200 ppm [5, 9] is reported as ≥ 80%. For the same compound, the percent effect (mortality or growth inhibition) at 200 ppm [6, 10] was ≥ 80% and the pest or weed control at 200 ppm (Melodoigyne incognita; [11]) was ≥ 80%.
With CCS(=O)(=O)c1cc(N2CCN(OC)C2=O)cnc1-c1nc2cc(C(F)(F)F)ncc2n1C [P35, 1-[5-ethylsulfonyl-6-[3-methyl-6-(trifluoromethyl)imidazo[4,5-c]pyridin-2-yl]-3-pyridyl]-3-methoxy-imidazolidin-2-one] the mortality at 200 ppm [1, 7] was ≥ 80%, the mortality at 24 ppm [2, 8] was ≥ 80% and the percent control (mortality, anti-feedant effect or growth inhibition) at 200 ppm [5, 9] was ≥ 80%. For the same compound, the percent effect (mortality or growth inhibition) at 200 ppm [6, 10] was ≥ 80%.
With CCS(=O)(=O)c1cc(N(OC)C(C)=O)cnc1-c1nc2cc(C(F)(F)F)ncc2n1C [P30, N-[5-ethylsulfonyl-6-[3-methyl-6-(trifluoromethyl)imidazo[4,5-c]pyridin-2-yl]-3-pyridyl]-N-methoxy-acetamide] the mortality at 200 ppm [1, 7] was ≥ 80%, the mortality at 24 ppm [2, 8] was ≥ 80% and the percent effect (mortality or growth inhibition) at 200 ppm [3] was ≥ 80%. The percent effect (mortality or growth inhibition) at 200 ppm [4] was ≥ 80%, the percent control (mortality, anti-feedant effect or growth inhibition) at 200 ppm [5, 9] was ≥ 80% and the percent effect (mortality or growth inhibition) at 200 ppm [6, 10] was ≥ 80%. For the same compound, the pest or weed control at 200 ppm (Melodoigyne incognita; [11]) was ≥ 80%.
For CCS(=O)(=O)c1cc(N(C)C(=O)C(F)(F)F)cnc1-c1nc2cc(C(F)(F)F)ncc2n1C [P11, N-[5-ethylsulfonyl-6-[3-methyl-6-(trifluoromethyl)imidazo[4,5-c]pyridin-2-yl]-3-pyridyl]-2,2,2-trifluoro-N-methyl-acetamide], the mortality at 200 ppm [1, 7] was ≥ 80%, the mortality at 24 ppm [2, 8] was ≥ 80% and the percent effect (mortality or growth inhibition) at 200 ppm [3] was ≥ 80%. The percent effect (mortality or growth inhibition) at 200 ppm [4] was ≥ 80%, the percent control (mortality, anti-feedant effect or growth inhibition) at 200 ppm [5, 9] was ≥ 80% and the percent effect (mortality or growth inhibition) at 200 ppm [6, 10] was ≥ 80%. The pest or weed control at 200 ppm (Melodoigyne incognita; [11]) was ≥ 80%.
With CCS(=O)(=O)c1cc(N(C)C(=O)CCl)cnc1-c1nc2cc(C(F)(F)F)ncc2n1C [P22, 2-chloro-N-[5-ethylsulfonyl-6-[3-methyl-6-(trifluoromethyl)imidazo[4,5-c]pyridin-2-yl]-3-pyridyl]-N-methyl-acetamide] the mortality at 200 ppm [1, 7] was ≥ 80%, the mortality at 24 ppm [2, 8] was ≥ 80% and the percent control (mortality, anti-feedant effect or growth inhibition) at 200 ppm [5, 9] was ≥ 80%. For the same compound, the percent effect (mortality or growth inhibition) at 200 ppm [6, 10] was ≥ 80% and the pest or weed control at 200 ppm (Melodoigyne incognita; [11]) was ≥ 80%.
